Where two headings read alike, the source gives them in different places.
Legend:
CYP3A4 = test system: CYP3A4; set-up: method as in earlier work; conditions: cited from earlier work
[1] = Stability in simulated gastric and intestinal fluid; type: in vitro ADME; conditions: 37°C, relative to time = 0 h
Method: Simulated gastric fluid (SGF) was generated by mixing 2.0 g of sodium chloride and 3.2 g of purified pepsin, which is derived from porcine stomach mucosa, with an activity of 800 to 2500 units per mg of protein, in 7.0 mL of hydrochloric acid and sufficient water to make 1000 mL. The final test solution has a pH of about 1.2. Simulated intestinal fluid (SIF) was generated by dissolving 6.8 g of monobasic potassium phosphate in 250 mL of water and adding 77 mL of 0.2 N sodium hydroxide and 500 mL of water. To this mixture, 10.0 g of pancreatin was added and the solution pH was adjusted with either 0.2 N sodium hydroxide or 0.2 N hydrochloric acid to a pH of 6.8 ± 0.1 and diluted with water to a final volume of 1000 mL. Encorafenib was dissolved in SGF (100 μM final encorafenib concentration) and incubated for 1 h or SIF (1 μM final encorafenib concentration) for 3 h. Dilutions are prepared in HPLC vials by combining 20 μL of the test compound in DMSO with 180 μL of the specified assay media. Separate dilutions are prepared for each time point per media. The media is mixed by repeated pipetting, vortexed and incubated at 37°C. At the specified time period and equal volume of cold ACN is added to the vial to precipitate the protein and quench any enzymatic activity. […] Stability is calculated as % remaining relative to the T = 0 peak area.

[2] = Plasma PK of non-radiolabeled encorafenib; type: in vivo, human; conditions: for Vd/F: read-out: Vz/F
[3] = Metabolite profiles in excreta (urine, feces); type: in vivo, human
Method: A pool of equal percent volume of urine (0–48 h) was prepared for each subject. An aliquot (1.5 mL) of the pooled sample was concentrated ~7‐fold by reducing the volume under nitrogen and then combined with 50 μL methanol:water:acetic acid (50:50:0.1; v/v) followed by centrifugation at 3500 rpm (~1000 × g) for 10 min. The aliquot was then injected onto the UPLC system with off‐line radioactivity detection.
A pool of approximately equal percent by weight of feces (from 0–96 h or 0–120 h) was prepared for each subject. Feces samples were extracted two times with 2 equivalent volumes of acetonitrile: each time with 10 min of vortexing, 10 min of sonication, and centrifugation at 3500 rpm (~1000 × g) for 10 min. An aliquot of the combined supernatant was concentrated approximately 5‐fold by evaporating to dryness under nitrogen and reconstituting in methanol:water:acetic acid (50:50:0.1, v/v) 45 μL of the concentrated, reconstituted samples was injected onto the UPLC system with off‐line radioactivity detection.
Characterization and quantification of the metabolites of encorafenib in select human plasma and excreta samples were performed by the Department of DMPK (Drug Metabolism and Pharmacokinetics) at the Novartis Institutes for Biomedical Research (East Hanover, NJ, USA) using liquid chromatography (LC) coupled to radioactivity detectors and mass spectrometers (MS).
The analytical system consisted of a Waters ACQUITY UPLC system (Waters), equipped with a Phenomenex Luna PFP column (3 μm, 4.6 × 150 mm) (Phenomenex) and a guard column of the same phase, both maintained at a temperature of 30°C. The mobile phases consisted of 10 mM ammonium acetate containing 0.1% formic acid (v/v) (solvent A) and CH3CN (solvent B). The total run time was 80 min. A linear gradient elution program was used with a flow rate of 1 mL/min as described in Table 1.
The UPLC effluent was split 4:1, with […] of the total flow introduced to the mass spectrometer for mass spectral analysis and the remaining flow used for radioactivity detection.
For off‐line radioactivity detection, the eluant was collected into 96‐well Lumaplate (Packard Instrument Co) microplates using a Collect Pal fraction collector (Leap Technologies) with a collection time of 10 seconds per well. The LumaPlates were sealed after drying and counted for 10–50 min per well on a Packard Topcount microplate scintillation counter. The structural characterization of metabolites was carried out using the above UPLC profiling method coupled to a two‐channel Z‐spray (LockSprayTM) time‐of‐flight mass spectrometer (Synapt MS). Leucine enkephalin was used as the mass reference standard for exact mass measurements and was delivered via the second spray channel at a flow rate of 5 μL/minute. […]
All radioactivity data were transferred to Laura software (version 4.2.2.24, Lab Logic Ltd, UK) to generate and integrate radio‐chromatograms. Radioactive peaks for quantitative analysis were manually selected from the plots. The radioactivity in the region encompassing the beginning and end of the peak was summed. All further calculations were based on radioactivity.
The percent of radioactivity (%RA) in a particular peak, Z, was calculated as follows in Equation (1): (1) %RAinZ=DPMin PeakZ/totalDPMinallintegrated peaksx100
The concentration or amount of each component was calculated as % RA (expressed as a fraction) multiplied by the total concentration of radioactivity in plasma, or the percent of dose in the excreta.

[4] = human, plasma, oral, 100 mg, GeoMean (GeoCV%)
[5] = human, plasma, oral, 100 mg, Mean (SD)
[6] = human, plasma, oral, 100 mg, Median (Minimum–Maximum)
[7] = plasma, Median (Minimum–Maximum)

Percentage remaining in SIF with pancreatin ([1]; 3-h incubation, 1 μM, pH 6.8): approximately 97%
Percentage remaining in SGF with pepsin ([1]; 1 h incubation, 100 μM, pH about 1.2): approximately 101%
Variability of apparent oral clearance, this study ([2]; healthy subjects, 100 mg): 37%
AUC(0-t) ([2]; human, plasma, oral, 100 mg, plasma, GeoMean (GeoCV%), read-out: AUC0-24): 3680 ng·h/mL
AUC(0-t) ([2]; human, plasma, oral, 100 mg, plasma, GeoMean (GeoCV%), read-out: AUClast): 3720 ng·h/mL
AUC(0-t) ([2]; human, plasma, oral, 100 mg, plasma, Mean (SD), read-out: AUC0-24): 3850 ng·h/mL
AUC(0-t) ([2]; human, plasma, oral, 100 mg, plasma, Mean (SD), read-out: AUClast): 3910 ng·h/mL
Vd/F ([2]; human, plasma, oral, 100 mg, plasma, Mean (SD)): 235 L
AUC(0-t) ([2]; human, plasma, oral, 100 mg, plasma, Median (Minimum–Maximum), read-out: AUC0-24): 3570 ng·h/mL
AUC(0-t) ([2]; human, plasma, oral, 100 mg, plasma, Median (Minimum–Maximum), read-out: AUClast): 3600 ng·h/mL
Vd/F ([2]; human, plasma, oral, 100 mg, plasma, Median (Minimum–Maximum)): 228 L
AUC(0-inf) [2, 4]: 3750 ng·h/mL
Cmax [2, 4]: 1040 ng/mL
half-life [2, 4]: 5.88 h
Cmax [2, 5]: 1050 ng/mL
half-life [2, 5]: 6.11 h
AUC(0-inf) [2, 6]: 3610 ng·h/mL
Cmax [2, 6]: 1080 ng/mL
half-life [2, 6]: 6.32 h
Vd/F ([2]; male, human, plasma, oral, 100 mg, plasma, GeoMean (GeoCV%)): ~226 L
Tmax ([2]; male, human, plasma, oral, 100 mg, plasma, Median (Minimum–Maximum), read-out: Tmax): 0.77 h
AUC(0-inf) ([2]; male, human, plasma, po, 100 mg, Mean (SD), n=4, 100 mg oral): 3940 ng·h/mL
Vz/F ([2]; plasma, GeoMean (GeoCV%)): 226 (32.7) L
CL/F ([2]; plasma, Mean (SD)): 27.9 (9.15) L/h
CL/F [2, 7]: 28.4 (17.1–37.6) L/h
Tmax [2, 7]: 0.767 (0.500–1.00) h
Metabolism as clearance pathway, share of the recovered radioactive dose ([3]; humans): ~ 88%
CLr as share of the glomerular filtration rate (7.5 L/h) ([3]; in vivo): 7%
CL renal ([3]; male, human, urine and plasma, oral, 100 mg, amount in urine divided by mean plasma AUCinf, read-out: Renal clearance (CLr), estimated mean (converted)): 8.33 mL/min
SMILES: COC(=O)N[C@@H](C)CNc1nccc(-c2cn(C(C)C)nc2-c2cc(Cl)cc(NS(C)(=O)=O)c2F)n1 [encorafenib]
Contribution of CYP3A4 to metabolism (CYP3A4): 83%
Component in feces, average ([3]; feces pool 0–96 h or 0–120 h, average of four subjects): 5.0 % of the administered radioactive dose
Component in urine, average ([3]; urine pool 0–48 h, average of four subjects): 1.8 % of the administered radioactive dose
